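Five concentrations, 48 hours, 96-well plates. At the TGI there is no net growth.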
Experiments:
Assay in all cases: NCI anticancer screen, dose series, 48 h
NCI-H522 lung = system: NCI-H522 lung
SF-539 CNS = system: SF-539 CNS
NCI-H23 lung = system: NCI-H23 lung
RPMI-8226 leukemia = system: RPMI-8226 leukemia
EKVX NSCLC = system: EKVX NSCLC
SF-268 CNS = system: SF-268 CNS
MDA-MB-435 = system: MDA-MB-435
786-0 renal = system: 786-0 renal
U251 CNS = system: U251 CNS
NCI/ADR-RES ovarian = system: NCI/ADR-RES ovarian
MCF7 breast = system: MCF7 breast
MDA-N = system: MDA-N
OVCAR-4 ovarian = system: OVCAR-4 ovarian
M14 melanoma = system: M14 melanoma
UACC-257 melanoma = system: UACC-257 melanoma
SR leukemia = system: SR leukemia
A549 NSCLC = system: A549 NSCLC
IGROV1 ovarian = system: IGROV1 ovarian
UO-31 renal = system: UO-31 renal
HS 578T breast = system: HS 578T breast
SK-OV-3 ovarian = system: SK-OV-3 ovarian
ACHN renal = system: ACHN renal
RXF 393 renal = system: RXF 393 renal
HOP-92 NSCLC = system: HOP-92 NSCLC
SK-MEL-2 melanoma = system: SK-MEL-2 melanoma
SF-295 CNS = system: SF-295 CNS
LOX IMVI melanoma = system: LOX IMVI melanoma
SNB-19 CNS = system: SNB-19 CNS
OVCAR-3 ovarian = system: OVCAR-3 ovarian
MDA-MB-231 breast = system: MDA-MB-231 breast
HCT-116 colon = system: HCT-116 colon
COLO 205 colon = system: COLO 205 colon
A498 renal = system: A498 renal
CAKI-1 renal = system: CAKI-1 renal
SNB-75 CNS = system: SNB-75 CNS
HT29 colon = system: HT29 colon
SK-MEL-5 melanoma = system: SK-MEL-5 melanoma
BT-549 breast = system: BT-549 breast
OVCAR-5 ovarian = system: OVCAR-5 ovarian
SN12C renal = system: SN12C renal
HCT-15 colon = system: HCT-15 colon
TK-10 renal = system: TK-10 renal
HL-60(TB) leukemia = system: HL-60(TB) leukemia
KM12 colon = system: KM12 colon
MOLT-4 leukemia = system: MOLT-4 leukemia
PC-3 prostate = system: PC-3 prostate
UACC-62 melanoma = system: UACC-62 melanoma
DU-145 prostate = system: DU-145 prostate
T-47D breast = system: T-47D breast
OVCAR-8 ovarian = system: OVCAR-8 ovarian
NCI-H460 lung = system: NCI-H460 lung
SW-620 colon = system: SW-620 colon
CCRF-CEM leukemia = system: CCRF-CEM leukemia
NCI-H226 lung = system: NCI-H226 lung
MALME-3M melanoma = system: MALME-3M melanoma
SK-MEL-28 melanoma = system: SK-MEL-28 melanoma
K-562 leukemia = system: K-562 leukemia
HOP-62 NSCLC = system: HOP-62 NSCLC

Measured: TGI

O=C(NCCc1[nH]nc2c1C(=O)C=C(Nc1ccccc1)C2=O)OCc1ccccc1
> 100 µM: NCI-H522 lung | SF-539 CNS | NCI-H23 lung | RPMI-8226 leukemia | EKVX NSCLC | SF-268 CNS | MDA-MB-435 | 786-0 renal | U251 CNS | NCI/ADR-RES ovarian | MCF7 breast | MDA-N | OVCAR-4 ovarian | M14 melanoma | UACC-257 melanoma | SR leukemia | A549 NSCLC | IGROV1 ovarian | UO-31 renal | HS 578T breast | SK-OV-3 ovarian | ACHN renal | RXF 393 renal | HOP-92 NSCLC | SK-MEL-2 melanoma | SF-295 CNS | LOX IMVI melanoma | SNB-19 CNS | OVCAR-3 ovarian | MDA-MB-231 breast | HCT-116 colon | COLO 205 colon | A498 renal | CAKI-1 renal | SNB-75 CNS | HT29 colon | SK-MEL-5 melanoma | BT-549 breast | OVCAR-5 ovarian | SN12C renal | HCT-15 colon | TK-10 renal | HL-60(TB) leukemia | KM12 colon | MOLT-4 leukemia | PC-3 prostate | UACC-62 melanoma | DU-145 prostate | T-47D breast | OVCAR-8 ovarian | NCI-H460 lung | SW-620 colon | CCRF-CEM leukemia | NCI-H226 lung

COc1cc(/C=N\O)cc(/C=N/O)c1O
90.9 µM: SK-OV-3 ovarian
54.7 µM: M14 melanoma
62.7 µM: SK-MEL-2 melanoma
81.9 µM: ACHN renal
32.4 µM: RPMI-8226 leukemia
60.3 µM: RXF 393 renal
77 µM: MOLT-4 leukemia
> 100 µM: NCI-H522 lung | NCI-H23 lung | EKVX NSCLC | SF-268 CNS | MDA-MB-435 | U251 CNS | NCI/ADR-RES ovarian | MCF7 breast | MDA-N | OVCAR-4 ovarian | UACC-257 melanoma | A549 NSCLC | IGROV1 ovarian | UO-31 renal | SK-MEL-28 melanoma | LOX IMVI melanoma | SNB-19 CNS | OVCAR-3 ovarian | MDA-MB-231 breast | HCT-116 colon | A498 renal | CAKI-1 renal | SNB-75 CNS | HT29 colon | SK-MEL-5 melanoma | BT-549 breast | OVCAR-5 ovarian | SN12C renal | HCT-15 colon | TK-10 renal | HL-60(TB) leukemia | K-562 leukemia | KM12 colon | PC-3 prostate | UACC-62 melanoma | DU-145 prostate | T-47D breast | HOP-62 NSCLC | OVCAR-8 ovarian | NCI-H460 lung | SW-620 colon
66.3 µM: SF-539 CNS
97.6 µM: MALME-3M melanoma
49.2 µM: COLO 205 colon
79.5 µM: HOP-92 NSCLC
63.8 µM: NCI-H226 lung
51.4 µM: HS 578T breast
76.5 µM: SF-295 CNS
25.1 µM: CCRF-CEM leukemia
90.2 µM: SR leukemia

Reference: PubChem BioAssay (NCI)
